Measurements reported in ChEMBL document CHEMBL1938289, “Facile synthesis of tetracyclic azepine and oxazocine derivatives and their potential as MAPKAP-K2 (MK2) inhibitors” (Bioorg Med Chem Lett, 2012).
Converted amounts (≈) assume the structure as drawn. The source made the active and inactive calls. The calls are words filed in the database; no cut-off is given here.

How the values were obtained:
[1] = biological target: T1, MAP kinase-activated protein kinase 2 (Homo sapiens, UniProt P49137); assay: Inhibition of MK2 using TAMRA-labeled peptide as substrate pre-incubated for 30 mins prior substrate addition measured after 30 mins incubation in dark using fluorescence polarization assay
Target sequence in this assay (P49137 whole entry): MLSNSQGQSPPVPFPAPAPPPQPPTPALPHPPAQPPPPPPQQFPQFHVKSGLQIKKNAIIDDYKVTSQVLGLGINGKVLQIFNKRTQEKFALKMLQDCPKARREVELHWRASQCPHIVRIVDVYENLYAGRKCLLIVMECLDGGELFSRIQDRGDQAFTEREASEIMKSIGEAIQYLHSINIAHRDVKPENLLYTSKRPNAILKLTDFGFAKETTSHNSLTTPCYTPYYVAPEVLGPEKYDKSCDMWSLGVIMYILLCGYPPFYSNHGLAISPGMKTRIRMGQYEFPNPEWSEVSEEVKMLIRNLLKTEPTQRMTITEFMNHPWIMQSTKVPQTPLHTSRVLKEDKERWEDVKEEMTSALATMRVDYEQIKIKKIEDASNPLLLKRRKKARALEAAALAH

[2] = biological target: T1, MAP kinase-activated protein kinase 2; assay: Noncompetitive inhibition of MK2 using TAMRA-labeled peptide as substrate
Target sequence in this assay (P49137 whole entry, looked up): as the sequence (P49137 whole entry) above

[3] = Kinetic solubility of the compound at pH 7.4; conditions: buffer
[4] = biological target: T1, MAP kinase-activated protein kinase 2; assay: Inhibition of MK2-mediated HSP27 phosphorylation at Ser78 in LPS-stimulated human THP-1 cells pre-incubated for 60 mins before LPS treatment measured after 60 mins; assay type: cell-based
Target sequence in this assay (P49137 whole entry): as above

| Compound | IC50 [1] | inhibition [2] | solubility kinetic [3] | EC50 [4] |
| --- | --- | --- | --- | --- |
| N#Cc1ccc(-c2cc3c(o2)-c2nncn2-c2ccc(N4CCNCC4)cc2C3)cc1 | 3.8 nM | Active | 16 µM (≈ 6.54 µg/mL) | 260 nM |
| Fc1ccc(-c2cc3c(o2)-c2nncn2-c2ccc(N4CCNCC4)cc2C3)cc1 | 15 nM | – | 33 µM (≈ 13.2 µg/mL) | – |
| Clc1ccc(-c2cc3c(o2)-c2nccn2-c2ccc(N4CCNCC4)cc2C3)cc1 | 7 nM | – | 20 µM (≈ 8.34 µg/mL) | 1500 nM |
| O=C(c1ccc(-c2ccc(Cl)cc2)o1)N(Cc1ccccn1)c1ccc(N2CCNCC2)cc1 | – | – | > 200 µM | – |
| Cc1nnc2n1-c1ccc(N3CCNCC3)cc1Cc1cc(-c3ccc(Cl)cc3)oc1-2 | 880 nM | – | 10 µM (≈ 4.32 µg/mL) | – |
| N#Cc1ccc(-c2cc3c(o2)-c2nccn2-c2ccc(N4CCNCC4)cc2C3)cc1 | 2.9 nM | – | < 16 µM | 260 nM |
| Cc1cnc2n1-c1ccc(N3CCNCC3)cc1Cc1cc(-c3ccc(Cl)cc3)oc1-2 | 9.2 nM | – | – | 2500 nM |
| Clc1ccc(-c2cc3c(o2)-c2nncn2-c2ccc(N4CCNCC4)cc2C3)cc1 | 9.3 nM | – | 10 µM (≈ 4.18 µg/mL) | 2100 nM |
| Clc1ccc(-c2cc3c(o2)-c2nccn2-c2ccc(N4CCNCC4)cc2OC3)cc1 | 18 nM | Active | 38 µM (≈ 16.5 µg/mL) | – |
| O=C1Nc2ccc(N3CCNCC3)cc2OCc2cc(-c3ccc(Cl)cc3)oc21 | 110 nM | – | – | – |
